Test results: patent publication US4689326A, “Process for controlling hyperlipidemia” (Research Corporation, priority 1985, dated 1987)
Like-named read-outs stand apart in the source and are kept apart here.

Tests used:
[1] = molecular target: T1, Cholesterol-7 Hydroxylase (Mus musculus, UniProt Q64505); test: In vitro enzyme activity, liver homogenate: cholesterol-7 hydroxylase; type: biochemical, CF1 male mouse; conditions: ± SD, N = 6, read-out: Percent Control, in vitro enzyme activity
T1 construct: 10% homogenates of CF1 male mouse liver; from tissue; host or cells: CF1 male mouse liver, 10% homogenate
T1 sequence (Q64505 whole entry): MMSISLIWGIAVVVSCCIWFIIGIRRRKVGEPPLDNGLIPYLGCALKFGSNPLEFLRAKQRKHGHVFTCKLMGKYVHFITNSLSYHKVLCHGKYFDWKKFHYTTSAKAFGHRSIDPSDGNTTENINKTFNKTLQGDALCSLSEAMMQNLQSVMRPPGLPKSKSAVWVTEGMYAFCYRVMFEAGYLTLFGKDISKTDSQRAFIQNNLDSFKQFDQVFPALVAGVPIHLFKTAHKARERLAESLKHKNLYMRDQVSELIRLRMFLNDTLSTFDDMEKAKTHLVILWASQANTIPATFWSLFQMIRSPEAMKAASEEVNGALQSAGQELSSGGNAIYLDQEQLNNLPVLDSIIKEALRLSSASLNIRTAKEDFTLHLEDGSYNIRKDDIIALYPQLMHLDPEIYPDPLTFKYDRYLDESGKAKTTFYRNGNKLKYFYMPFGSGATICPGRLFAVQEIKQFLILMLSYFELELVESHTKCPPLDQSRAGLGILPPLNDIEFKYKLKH
Experimental: (§1) In vitro enzymatic studies were undertaken using 10% homogenates of CF1 male mouse liver with […] of compound 3,4,5,6-dibenzohomopiperidine. In addition, in vivo enzymatic studies were performed, again using 10% liver homogenates (prepared in 0.25 M sucrose plus 0.001 M (ethylenedinitrilo)-tetraacetic acid, ph 7.25 from CF1 male mice obtained after administering 3,4,5,6-dibenzohomopiperidine for 16 days at a concentration ranging from 10 to 60 mg/kg/day, intraperitoneally.
(§2) The following enzyme activities were determined by following standard literature procedures: acetyl coenzyme synthetase; adenosine triphosphate dependent citrate lyase; mitochondrial citrate exchange; cholesterol/7 hydroxylase; 3-hydroxy-3-methyl-glutaryl coenzyme A reductase; acetyl coenzyme A carboxylase activity; fatty acid synthetase activity; sn-glycerol-3-phosphate acyl transferase activity; phosphatidate phosphohydrolase activity; cholesterol acyl transferase; and heparin activated hepatic lypoprotein lipase. Protein was determined for all enzyme assays by the Lowry et al. technique (J. Biol. Chem, 193, 265 (1951)).

[2] = test system: Phosphatidate Phosphohyrolase; test: In vitro enzyme activity, liver homogenate: phosphatidate phosphohydrolase; type: biochemical, CF1 male mouse; conditions: ± SD, N = 6
Experimental: as §1, §2

[3] = test system: liver, small intestine and fecal materials; test: Lipid Extraction Studies in Mice, Example 10; type: in vivo, CF1 male mice; conditions: ± SD
Experimental: The CF1 male mice that had been administered compound 3,4,5,6-dibenzohomopiperidine at four dosage levels as well as the control mice, were sacrificed and the liver, small intestine and fecal materials (24 hour collection) were removed, extracted and analyzed for cholesterol level, triglycerides level, neutral lipid content and phospholipid content. Table 8 reports the decrease in measured levels of these concentrations as a percentage of the level in the control. The control, it is noted, is always 100%.

HMG CoA Reductase = test: In vivo enzyme activity, liver of treated mice: HMG CoA reductase; design: species or system CF1 male mice; conditions: 16 days, ± SD
Experimental: as §1, §2

Acetyl CoA Synthetase = test: In vivo enzyme activity, liver of treated mice: acetyl CoA synthetase; design: species or system CF1 male mice; conditions: 16 days, ± SD
Experimental: as §1, §2

^3 H-cholesterol = test: Effect on 3H Cholesterol Distribution in Rats, Example 12; type: in vivo, Sprague Dawley rats; conditions: oral 20 mg/kg/day
Experimental: A group of 6 Sprague Dawley rats, each weighing approximately 300 g, were treated with 3,4,5,6-dibenzohomopiperdine applied orally at a dosage of 20 mg/kg per day for 4 days. Six similar Sprague Dawley rats were untreated and served as a control. On the 13th day, 10 μCi of ^3 H-cholesterol was administered orally. The rats were sacrificed and tissue samples were combusted or plated on filter paper, dried and digested for 24 hours in hyamine hydroxide at 40° C. and counted. Results of this test are reported as disintegrations per minute (DPM) per total organ.
In Table 10, the average organ weight and feces of the treated and untreated rats are reported. The table indicates the concentration of ^3 H-cholesterol in the organs and feces of the treated and untreated (control) rats.

serum cholesterol = test: Testing of Normal Mice: serum cholesterol (modified Liebermann-Burchard), Example 7; type: in vivo, CF1 male mice; conditions: Mus musculus; for response vs control in vivo at 10 mg/kg: 10 mg/kg/day ip; for response vs control in vivo at 40 mg/kg: 40 mg/kg/day ip; for response vs control in vivo at 60 mg/kg: 60 mg/kg/day ip
HDL = test: Lipoprotein fractions in Rats, Example 11: HDL; type: in vivo, Sprague Dawley male rats; conditions: oral 20 mg/kg/day, fourteen days, ± SD
Experimental: A group of six Sprague Dawley male rats were treated with 20 mg/kg/day of 3,4,5,6-dibenzohomopiperidine. The treatment was applied orally. An equal number of Sprague Dawley male rats, having approximately the same weight, were utilized as an untreated control. At the end of fourteen days the control and treated rats were sacrificed. Blood was collected from the abdominal aorta and lipoprotein fractions were obtained by the method of Hatch and Lees [Adv. Lipid Rees., 6, 1 (1968)] and Havel et al. [J. Clin Invest., 34, 1345 (1955)]. Each of the fractions were analyzed for cholesterol, triglycerides, neutral lipids, phospholipids and protein levels.

[4] = test system: Mitochondrial Citrate Exchange; test: In vitro enzyme activity, liver homogenate: mitochondrial citrate exchange; type: biochemical, CF1 male mouse; conditions: ± SD, N = 6
Experimental: as §1, §2

[5] = 216 h, day 9, ± SD, read-out: Serum Cholesterol Control, % Day 9
[6] = 384 h, day 16, ± SD, read-out: Serum Cholesterol Control, % Day 16

c1ccc2c(c1)CNCc1ccccc1-2 [Compound 3, 3,4,5,6-dibenzohomopiperidine]
remaining activity at 50 µM ([1]; 50 μM): 68 ± 7%
remaining activity at 100 µM ([1]; 100 μM): 72 ± 5%
remaining activity at 200 µM ([1]; 200 μM): 98 ± 7%
Percent Control, in vitro enzyme activity ([2]; 50 μM): 45 ± 4%
Percent Control, in vitro enzyme activity ([2]; 100 μM): 44 ± 8%
Percent Control, in vitro enzyme activity ([2]; 200 μM): 50 ± 6%
Cholesterol, concentration as a function of control ([3]; 20 mg/kg): 55 ± 5%
Lipid wt, concentration as a function of control ([3]; 20 mg/kg): 62 ± 6%
Neutral lipid, concentration as a function of control ([3]; 20 mg/kg): 50 ± 5%
Phospholipid, concentration as a function of control ([3]; 20 mg/kg): 100 ± 7%
Protein, concentration as a function of control ([3]; 20 mg/kg): 95 ± 8%
Triglyceride, concentration as a function of control ([3]; 20 mg/kg): 37 ± 4%
Cholesterol, concentration as a function of control ([3]; 40 mg/kg): 114 ± 8%
Lipid wt, concentration as a function of control ([3]; 40 mg/kg): 112 ± 9%
Neutral lipid, concentration as a function of control ([3]; 40 mg/kg): 95 ± 6%
Phospholipid, concentration as a function of control ([3]; 40 mg/kg): 84 ± 7%
Protein, concentration as a function of control ([3]; 40 mg/kg): 103 ± 7%
Triglyceride, concentration as a function of control ([3]; 40 mg/kg): 70 ± 5%
Cholesterol, concentration as a function of control ([3]; 60 mg/kg): 99 ± 5%
Lipid wt, concentration as a function of control ([3]; 60 mg/kg): 106 ± 8%
Neutral lipid, concentration as a function of control ([3]; 60 mg/kg): 90 ± 6%
Phospholipid, concentration as a function of control ([3]; 60 mg/kg): 91 ± 8%
Protein, concentration as a function of control ([3]; 60 mg/kg): 104 ± 8%
Triglyceride, concentration as a function of control ([3]; 60 mg/kg): 74 ± 6%
Cholesterol, concentration as a function of control ([3]; 10 g/kg (so in the source)): 83 ± 6%
Lipid wt, concentration as a function of control ([3]; 10 g/kg (so in the source)): 92 ± 7%
Neutral lipid, concentration as a function of control ([3]; 10 g/kg (so in the source)): 75 ± 6%
Phospholipid, concentration as a function of control ([3]; 10 g/kg (so in the source)): 78 ± 6%
Protein, concentration as a function of control ([3]; 10 g/kg (so in the source)): 98 ± 9%
Triglyceride, concentration as a function of control ([3]; 10 g/kg (so in the source)): 48 ± 4%
Percent Control, in vivo enzyme activity (HMG CoA Reductase; 10 mg/kg/day ip): 123 ± 5%
Percent Control, in vivo enzyme activity (HMG CoA Reductase; 20 mg/kg/day ip): 133 ± 9%
Percent Control, in vivo enzyme activity (HMG CoA Reductase; 40 mg/kg/day ip): 146 ± 7%
Percent Control, in vivo enzyme activity (HMG CoA Reductase; 60 mg/kg/day ip): 124 ± 6%
Percent Control, in vivo enzyme activity (Acetyl CoA Synthetase; 10 mg/kg/day ip): 64 ± 6%
Percent Control, in vivo enzyme activity (Acetyl CoA Synthetase; 20 mg/kg/day ip): 95 ± 6%
Percent Control, in vivo enzyme activity (Acetyl CoA Synthetase; 40 mg/kg/day ip): 103 ± 8%
Percent Control, in vivo enzyme activity (Acetyl CoA Synthetase; 60 mg/kg/day ip): 81 ± 6%
3H-cholesterol, Treated % Recovery (^3 H-cholesterol; brain): 0.162%
3H-cholesterol, Treated DPM per total organ (^3 H-cholesterol; brain): 9,216 DPM
3H-cholesterol, Treated % Recovery (^3 H-cholesterol; chyme): 11.739%
3H-cholesterol, Treated DPM (^3 H-cholesterol; chyme): 667,840 DPM
3H-cholesterol, Treated % Recovery (^3 H-cholesterol; feces): 14.462%
3H-cholesterol, Treated DPM (^3 H-cholesterol; feces): 822,719 DPM
3H-cholesterol, Treated % Recovery (^3 H-cholesterol; heart): 0.452%
3H-cholesterol, Treated DPM per total organ (^3 H-cholesterol; heart): 25,692 DPM
3H-cholesterol, Treated % Recovery (^3 H-cholesterol; kidney): 0.652%
3H-cholesterol, Treated DPM per total organ (^3 H-cholesterol; kidney): 37,096 DPM
3H-cholesterol, Treated % Recovery (^3 H-cholesterol; large intestine): 3.757%
3H-cholesterol, Treated DPM per total organ (^3 H-cholesterol; large intestine): 213,777 DPM
3H-cholesterol, Treated % Recovery (^3 H-cholesterol; liver): 23.615%
3H-cholesterol, Treated DPM per total organ (^3 H-cholesterol; liver): 1,343,450 DPM
3H-cholesterol, Treated % Recovery (^3 H-cholesterol; lung): 2.183%
3H-cholesterol, Treated DPM per total organ (^3 H-cholesterol; lung): 124,180 DPM
3H-cholesterol, Treated DPM (^3 H-cholesterol; plasma): 26,018 DPM
3H-cholesterol, Treated % Recovery (^3 H-cholesterol; small intestine): 38.525%
3H-cholesterol, Treated DPM per total organ (^3 H-cholesterol; small intestine): 2,191,623 DPM
3H-cholesterol, Treated % Recovery (^3 H-cholesterol; spleen): 1.806%
3H-cholesterol, Treated DPM per total organ (^3 H-cholesterol; spleen): 102,723 DPM
3H-cholesterol, Treated % Recovery (^3 H-cholesterol; stomach): 2.189%
3H-cholesterol, Treated DPM per total organ (^3 H-cholesterol; stomach): 124,552 DPM
response vs control in vivo at 10 mg/kg (serum cholesterol; [5]): 61 ± 5%
response vs control in vivo at 40 mg/kg (serum cholesterol; [5]): 67 ± 6%
response vs control in vivo at 60 mg/kg (serum cholesterol; [5]): 69 ± 5%
response vs control in vivo at 10 mg/kg (serum cholesterol; [6]): 50 ± 5%
response vs control in vivo at 40 mg/kg (serum cholesterol; [6]): 54 ± 4%
response vs control in vivo at 60 mg/kg (serum cholesterol; [6]): 51 ± 4%
Cholesterol, concentration as a function of control (HDL): 106 ± 5%
Neutral Lipids, concentration as a function of control (HDL): 59 ± 5%
Phospholipids, concentration as a function of control (HDL): 64 ± 3%
Protein, concentration as a function of control (HDL): 106 ± 7%
Triglycerides, concentration as a function of control (HDL): 40 ± 2%
Percent Control, in vitro enzyme activity ([4]; 50 μM): 99 ± 6%
Percent Control, in vitro enzyme activity ([4]; 100 μM): 97 ± 5%
Percent Control, in vitro enzyme activity ([4]; 200 μM): 99 ± 7%
